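Five concentrations, 48 hours, 96-well plates. Here, GI50 denotes the concentration required for 50% inhibition of growth. TGI marks complete inhibition of growth.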

Among the test systems are MDA-MB-231 breast; SK-MEL-5 melanoma; A498 renal; RPMI-8226 leukemia; SK-MEL-2 melanoma; NCI-H522 lung; HT29 colon; 786-0 renal; UACC-62 melanoma; NCI-H460 lung.
Holding throughout (test): NCI tumour cell line growth inhibition, 48 h

Turning to `C[C@@]1(F)[C@H](O)[C@@H](CO)O[C@H]1n1ccc(=O)[nH]c1=O`, the GI50 with MDA-MB-231 breast, in the test on SK-MEL-5 melanoma, in the test with A498 renal, with RPMI-8226 leukemia, in the test on SK-MEL-2 melanoma and in the test on NCI-H522 lung was > 100 µM each time. The GI50 in the test with HT29 colon, in the test with 786-0 renal, in the test with UACC-62 melanoma and in the test on NCI-H460 lung was > 100 µM each time. For the same compound, the TGI with MDA-MB-231 breast, with SK-MEL-5 melanoma, in the test with A498 renal, with RPMI-8226 leukemia, in the test on SK-MEL-2 melanoma and with NCI-H522 lung was > 100 µM each time. Further, the TGI in the test with HT29 colon, in the test with 786-0 renal, with UACC-62 melanoma and with NCI-H460 lung was > 100 µM in each case.

As for `O=C1C(=O)c2c(nc3ccc(C(F)(F)F)cn23)-c2ccccc21`, the GI50 with MDA-MB-231 breast is 0.215 µM; in the test with SK-MEL-5 melanoma it was 0.171 µM; in the test on A498 renal, 1.82 µM; in the test with RPMI-8226 leukemia, 0.169 µM; in the test with SK-MEL-2 melanoma it was 0.209 µM; in the test on NCI-H522 lung it was 0.206 µM. For the same compound, the GI50 with HT29 colon was 0.923 µM; in the test with 786-0 renal it was 0.396 µM; in the test with UACC-62 melanoma, 0.179 µM; in the test on NCI-H460 lung, 0.466 µM. Also, the TGI came out at 0.74 µM with MDA-MB-231 breast; 0.31 µM in the test on SK-MEL-5 melanoma; 3.25 µM with A498 renal; 0.53 µM with RPMI-8226 leukemia; 0.434 µM with SK-MEL-2 melanoma; 0.549 µM in the test with NCI-H522 lung. The TGI with HT29 colon turned out to be 3.61 µM; in the test on 786-0 renal it was 0.835 µM; with UACC-62 melanoma it was 0.343 µM; in the test on NCI-H460 lung, 1.08 µM.

Turning to `CC1(C)CC(C)(C)c2cc(NC(=S)Nc3ccc([N+](=O)[O-])cc3)ccc2S1`, the GI50 is 10.8 µM in the test on MDA-MB-231 breast; 9.23 µM in the test on SK-MEL-5 melanoma; 9.16 µM with A498 renal; 31 µM in the test on RPMI-8226 leukemia; 10.5 µM in the test with SK-MEL-2 melanoma; 9.63 µM with NCI-H522 lung. In addition, the GI50 in the test with HT29 colon was 24.1 µM; in the test with 786-0 renal, 17 µM; with UACC-62 melanoma, 10.9 µM; with NCI-H460 lung it was 27.6 µM. For the same compound, the TGI was determined as 22.6 µM in the test with MDA-MB-231 breast; 19.1 µM in the test with SK-MEL-5 melanoma; 19.1 µM in the test with A498 renal; 99.8 µM in the test on RPMI-8226 leukemia; 23.1 µM in the test on SK-MEL-2 melanoma; 22.1 µM in the test on NCI-H522 lung. For the same compound, the TGI with HT29 colon was > 100 µM; in the test on 786-0 renal, > 55.5 µM; in the test with UACC-62 melanoma it was 25 µM; in the test on NCI-H460 lung, > 69.3 µM.

Consider `C=C1C(=O)O[C@@H]2/C=C(/C)[C@@H](OC(C)=O)C/C=C(\C)C(O)[C@@H](OC(=O)/C(C)=C\C)C12` (stereo not given in full), for which the TGI with MDA-MB-231 breast is 39.2 µM; in the test on SK-MEL-5 melanoma it was 32.1 µM; in the test on A498 renal, > 100 µM; with RPMI-8226 leukemia, 60.7 µM; in the test with SK-MEL-2 melanoma, 76.8 µM; with NCI-H522 lung it was 32.3 µM. Further, the TGI was 40.1 µM in the test with HT29 colon, 29.7 µM in the test on 786-0 renal, 88.4 µM with UACC-62 melanoma and > 100 µM in the test on NCI-H460 lung.

Take `COc1ccc2[nH]c(C(=O)N3CCN(C(=O)OCc4ccc5c(Cl)cc(Cl)c(O)c5n4)CC3)cc2c1`: the GI50 is 1.34 µM with MDA-MB-231 breast; 1.66 µM in the test with SK-MEL-5 melanoma; 1.59 µM in the test on A498 renal; 0.281 µM with RPMI-8226 leukemia; 1.61 µM with SK-MEL-2 melanoma; 0.828 µM in the test on NCI-H522 lung. For the same compound, the GI50 with HT29 colon was 1.08 µM; in the test on 786-0 renal, 1.37 µM; in the test on UACC-62 melanoma, 1.28 µM; with NCI-H460 lung, 1.18 µM. The TGI in the test with MDA-MB-231 breast was 2.87 µM; with SK-MEL-5 melanoma it was 3.03 µM; in the test on A498 renal, 2.99 µM; in the test with RPMI-8226 leukemia, 0.962 µM; in the test on SK-MEL-2 melanoma, 3.06 µM; in the test on NCI-H522 lung, 2.35 µM. Further, the TGI with HT29 colon amounted to 2.48 µM; in the test with 786-0 renal, 2.82 µM; with UACC-62 melanoma it was 2.59 µM; in the test with NCI-H460 lung, 2.76 µM.

Regarding `Nc1cc2c3c(cccc3c1)C(=O)N(CCN1CCCC1)C2=O`, the GI50 with MDA-MB-231 breast was 4.95 µM; in the test on SK-MEL-5 melanoma it was 1.65 µM; in the test with A498 renal it was 2.54 µM; with RPMI-8226 leukemia, 1.23 µM; with SK-MEL-2 melanoma, 4.96 µM; in the test on NCI-H522 lung, 3.46 µM. The GI50 in the test with HT29 colon is 3.11 µM; in the test with 786-0 renal it was 4.5 µM; in the test on UACC-62 melanoma, 2.47 µM; with NCI-H460 lung, 0.666 µM. The TGI with MDA-MB-231 breast came out at 40.7 µM; in the test with SK-MEL-5 melanoma, 4.01 µM; in the test with A498 renal, 7.89 µM; in the test on RPMI-8226 leukemia, 11.9 µM; with SK-MEL-2 melanoma, 19.2 µM; in the test on NCI-H522 lung, 19.4 µM. Further, the TGI in the test with HT29 colon is 22.2 µM; in the test on 786-0 renal, > 55.7 µM; in the test on UACC-62 melanoma it was 9.99 µM; in the test with NCI-H460 lung, > 24.5 µM.

For `CSc1nc(Nc2cccc(NC(=O)CCl)c2)c(C#N)c(-c2cccc([N+](=O)[O-])c2)n1`, the GI50 with MDA-MB-231 breast is 2.39 µM; in the test on SK-MEL-5 melanoma it was 1.51 µM; in the test with A498 renal it was 12.4 µM; with RPMI-8226 leukemia it was 2.1 µM; in the test with SK-MEL-2 melanoma it was 2.05 µM; in the test with NCI-H522 lung it was 1.68 µM. Also, the GI50 is 2.36 µM in the test on HT29 colon, 2.94 µM with 786-0 renal, 1.35 µM with UACC-62 melanoma and 4.12 µM in the test with NCI-H460 lung. For the same compound, the TGI was 10.7 µM with MDA-MB-231 breast; 3.28 µM with SK-MEL-5 melanoma; 37.6 µM with A498 renal; 5.6 µM in the test with RPMI-8226 leukemia; 5.22 µM with SK-MEL-2 melanoma; 5.36 µM with NCI-H522 lung. Besides, the TGI with HT29 colon came out at 5.53 µM; in the test with 786-0 renal it was 43.7 µM; in the test on UACC-62 melanoma it was 3.17 µM; in the test with NCI-H460 lung, 23.2 µM.

As for `COc1cc(C2CC(c3ccc(Nc4nc(NCCO)nc(NCCO)n4)cc3)=NN2c2cc(Cl)cc(Cl)c2)cc(OC)c1OC` (stereo not given), the GI50 in the test with MDA-MB-231 breast is 1.45 µM; in the test on SK-MEL-5 melanoma, 1.7 µM; in the test on A498 renal, 16.6 µM; in the test with RPMI-8226 leukemia, 1.15 µM; in the test with SK-MEL-2 melanoma, 15.5 µM; in the test with NCI-H522 lung, 2.25 µM. The GI50 in the test with HT29 colon was 1.52 µM; with 786-0 renal, 1.29 µM; in the test on UACC-62 melanoma, 1.58 µM; with NCI-H460 lung it was 1.77 µM. The TGI was found to be 3.44 µM in the test on MDA-MB-231 breast; 3.34 µM in the test on SK-MEL-5 melanoma; 30.2 µM in the test with A498 renal; 6.28 µM in the test with RPMI-8226 leukemia; 28.9 µM in the test on SK-MEL-2 melanoma; 9.21 µM in the test with NCI-H522 lung. The TGI was 3.25 µM with HT29 colon, 2.59 µM in the test on 786-0 renal, 3.04 µM with UACC-62 melanoma and 3.8 µM in the test on NCI-H460 lung.
